From patent US7674767B2, “Nanoparticle compositions of water-soluble drugs for oral administration and preparation methods thereof” (Samyang Corporation, priority 2003, dated 2010)

Experiment: Gastrointestinal absorption test, blood concentration of ceftriaxone after intra-duodenal administration
Type: in vivo, Sprague Dawley rat
Conditions: intra-duodenal 40 mg/kg, normal rats
Procedure: Normal rat (Sprague Dawley, male, weighing about 200 g) was ether-anesthetized, and the abdomen was opened. The duodenum was taken and the nanoparticle liquid formulation containing ceftriaxone was administered thereto at 40 mg/kg as ceftriaxone.
The formulations of Examples 6 and Example 7, and Comparative Example 5 were used for test groups. The formulation of Comparative Example 5 is one containing neither ceftriaxone-counter-ion complex nor polymer, and so having lower drug entrapping rate and incapable of controlling drug dissolution compared with that of Example 6.
Blood was gathered from tail vein at 0, 0.5, 1, 1.5, 2, 3 and 4 hours after the drug administration, and analyzed according to ceftriaxone analysis method of the US Pharmacopoeia. The blood was centrifuged at 3000 rpm for 10 minutes, and pretreated by adding the equal amount of acetonitrile thereto.
As reference group 1, ceftriaxone dissolved in water was administered at 40 mg/kg via the same route as Example 6.
As reference group 2, ceftriaxone dissolved in a physiological saline was intravenously injected at 20 mg/kg.

SMILES: CO/N=C(\C(=O)N[C@@H]1C(=O)N2C(C(=O)O)=C(CSc3nc(=O)c(=O)[nH]n3C)CS[C@H]12)c1csc(N)n1 [aqueous solution of ceftriaxone, ceftriaxone]
- absorption of ceftriaxone in vivo: not nearly absorbed
